In US5780605A, “6,9-bridged erythromycin derivatives” (Abbott Laboratories, priority 1997, dated 1998):

Key:
Test in all cases: in vitro antibacterial activity (MIC), BHI agar dilution
Type in all cases: cell-based
[1] = test system: Staphylococcus aureus CMX 642A; conditions: S. aureus CMX 642A, 35-37° C., 20 to 24 hours
Protocol: (§1) Representative compounds of the present invention were assayed in vitro for antibacterial activity as follows: Twelve petri dishes containing successive aqueous dilutions of the test compound mixed with 10 mL of sterilized Brain Heart Infusion (BHI) agar (Difco 0418-01-5) were prepared. Each plate was inoculated with 1:100 (or 1:10 for slow-growing strains, such as Micrococcus and Streptococcus) dilutions of up to 32 different microorganisms, using a Steers replicator block. […] In addition, a control plate, using BHI agar containing no test compound, was prepared and incubated at the beginning and end of each test.
(§2) An additional plate containing a compound having known susceptibility patterns for the organisms being tested and belonging to the same antibiotic class as the test compound was also prepared and incubated as a further control, as well as to provide test-to-test comparability.
(§3) After incubation, each plate was visually inspected. The minimum inhibitory concentration (MIC) was defined as the lowest concentration of drug yielding no growth, a slight haze, or sparsely isolated colonies on the inoculum spot as compared to the growth control.

[2] = test system: Streptococcus pyogenes 930; conditions: S. pyogenes 930, 35-37° C., 20 to 24 hours
Protocol: as §1, §2, §3

[3] = test system: Staphylococcus aureus CMX 553; conditions: S. aureus CMX 553, 35-37° C., 20 to 24 hours
Protocol: as §1, §2, §3

[4] = test system: Streptococcus pyogenes PIU 2548; conditions: S. pyogenes PIU 2548, 35-37° C., 20 to 24 hours
Protocol: as §1, §2, §3

[5] = test system: Streptococcus agalactiae CMX 508; conditions: S. agalactiae CMX 508, 35-37° C., 20 to 24 hours
Protocol: as §1, §2, §3

[6] = test system: Nocardia Asteroides ATCC9970; conditions: 35-37° C., 20 to 24 hours
Protocol: as §1, §2, §3

[7] = test system: Streptococcus Pheumoniae ATCC6303; conditions: 35-37° C., 20 to 24 hours
Protocol: as §1, §2, §3

[8] = test system: Micrococcus luteus ATCC 9341; conditions: M. luteus ATCC 9341, 35-37° C., 20 to 24 hours
Protocol: as §1, §2, §3

[9] = test system: Staphylococcus aureus A-5278; conditions: S. aureus A-5278, 35-37° C., 20 to 24 hours
Protocol: as §1, §2, §3

[10] = test system: Streptococcus Pheumoniae GYR 1171; conditions: 35-37° C., 20 to 24 hours
Protocol: as §1, §2, §3

[11] = test system: Staphylococcus aureus ATCC 6538P; conditions: S. aureus ATCC 6538P, 35-37° C., 20 to 24 hours
Protocol: as §1, §2, §3

[12] = test system: Enterococcus faecium ATCC 8043; conditions: E. faecium ATCC 8043, 35-37° C., 20 to 24 hours
Protocol: as §1, §2, §3

[13] = test system: Streptococcus bovis A-5169; conditions: S. bovis A-5169, 35-37° C., 20 to 24 hours
Protocol: as §1, §2, §3

[14] = test system: Candida albicans CCH 442; conditions: C. albicans CCH 442, 35-37° C., 20 to 24 hours
Protocol: as §1, §2, §3

[15] = test system: Escherichia coli SS; conditions: E. coli SS, 35-37° C., 20 to 24 hours
Protocol: as §1, §2, §3

[16] = test system: Staphylococcus epidermidis 3519; conditions: S. epidermidis 3519, 35-37° C., 20 to 24 hours
Protocol: as §1, §2, §3

[17] = test system: Streptococcus Pheumoniae 5979; conditions: 35-37° C., 20 to 24 hours
Protocol: as §1, §2, §3

[18] = test system: Haemophilis Influenzae DILL AMP R; conditions: 35-37° C., 20 to 24 hours
Protocol: as §1, §2, §3

[19] = test system: Staphylococcus aureus A5177; conditions: S. aureus A5177, 35-37° C., 20 to 24 hours
Protocol: as §1, §2, §3

[20] = test system: Streptococcus pyogenes EES61; conditions: S. pyogenes EES61, 35-37° C., 20 to 24 hours
Protocol: as §1, §2, §3

[21] = test system: Escherichia coli DC-2; conditions: E. coli DC-2, 35-37° C., 20 to 24 hours
Protocol: as §1, §2, §3

[22] = test system: Streptococcus Pheumoniae 5649; conditions: 35-37° C., 20 to 24 hours
Protocol: as §1, §2, §3

[23] = test system: Micrococcus luteus ATCC 4698; conditions: M. luteus ATCC 4698, 35-37° C., 20 to 24 hours
Protocol: as §1, §2, §3

[24] = test system: Staphylococcus aureus 1775; conditions: S. aureus 1775, 35-37° C., 20 to 24 hours
Protocol: as §1, §2, §3

[25] = test system: Mycobacterium smegmafis ATCC 114; conditions: 35-37° C., 20 to 24 hours
Protocol: as §1, §2, §3

[26] = test system: Escherichia coli JUHL; conditions: E. coli JUHL, 35-37° C., 20 to 24 hours
Protocol: as §1, §2, §3

[27] = test system: Staphylococcus aureus NCTC10649M; conditions: S. aureus NCTC10649M, 35-37° C., 20 to 24 hours
Protocol: as §1, §2, §3

Row | SMILES | MIC (minimum inhibitory concentration) [1] | MIC (minimum inhibitory concentration) [2] | MIC (minimum inhibitory concentration) [3] | MIC (minimum inhibitory concentration) [4] | MIC (minimum inhibitory concentration) [5] | MIC (minimum inhibitory concentration) [7] | MIC (minimum inhibitory concentration) [8] | MIC (minimum inhibitory concentration) [9] | MIC (minimum inhibitory concentration) [10] | MIC (minimum inhibitory concentration) [11] | MIC (minimum inhibitory concentration) [12] | MIC (minimum inhibitory concentration) [13] | MIC (minimum inhibitory concentration) [14] | MIC (minimum inhibitory concentration) [16] | MIC (minimum inhibitory concentration) [18] | MIC (minimum inhibitory concentration) [19] | MIC (minimum inhibitory concentration) [20] | MIC (minimum inhibitory concentration) [21] | MIC (minimum inhibitory concentration) [22] | MIC (minimum inhibitory concentration) [23] | further results
1 | CC[C@H]1OC(=O)[C@H](C)[C@@H](O[C@H]2C[C@@](C)(OC)[C@@H](O)[C@H](C)O2)[C@H](C)[C@@H](O[C@@H]2O[C@H](C)C[C@H](N(C)C)[C@H]2O)[C@@]2(C)C[C@@H](C)C(=NOCO2)[C@H](C)[C@H]2OC(=O)O[C@@]21C [Example 2] | 0.39 | > 100 | 0.78 | 3.1 | 0.05 | 0.06 | 0.1 | > 100 | 0.03 | 0.39 | 0.1 | 0.02 | > 100 | 0.39 | 2 | 3.1 | <= 0.005 | 25 | 4 | 0.39 | MIC (minimum inhibitory concentration) [6]: 0.1; MIC (minimum inhibitory concentration) [15]: 0.78; MIC (minimum inhibitory concentration) [17]: > 128; MIC (minimum inhibitory concentration) [24]: > 100; MIC (minimum inhibitory concentration) [25]: 3.1; MIC (minimum inhibitory concentration) [26]: 50
2 | CC[C@H]1OC(=O)[C@H](C)C(=O)[C@H](C)[C@@H](O[C@@H]2O[C@H](C)C[C@H](N(C)C)[C@H]2O)[C@@]2(C)C[C@@H](C)C(=NOCO2)[C@H](C)[C@H]2OC(=O)O[C@@]21C [Example 3] | 3.1 | > 100 | 3.1 | 0.78 | 0.78 | 1 | 0.39 | > 100 | 0.25 | 3.1 | 0.78 | 0.2 | > 100 | 3.1 | 16 | 3.1 | 0.39 | > 100 | 0.5 | 0.78 | MIC (minimum inhibitory concentration) [6]: 0.78; MIC (minimum inhibitory concentration) [15]: 0.78; MIC (minimum inhibitory concentration) [17]: > 128; MIC (minimum inhibitory concentration) [24]: > 100; MIC (minimum inhibitory concentration) [25]: 25; MIC (minimum inhibitory concentration) [27]: 3.1; MIC (minimum inhibitory concentration) [26]: > 100
3 | CC[C@H]1OC(=O)[C@H](C)[C@@H](O[C@H]2C[C@@](C)(OC)[C@@H](O)[C@H](C)O2)[C@H](C)[C@@H](O[C@@H]2O[C@H](C)C[C@H](N(C)C)[C@H]2O)[C@](C)(O)C[C@@H](C)C(=O)[C@H](C)[C@@H](O)[C@]1(C)O [Ery. A, Erythromycin A, reference compound] | 0.39 | > 100 | 0.39 | 6.2 | 0.05 | 0.06 | 0.05 | > 100 | 0.06 | 0.2 | 0.05 | 0.02 | > 100 | 0.39 | 4 | 3.1 | 0.05 | > 100 | 16 | 0.2 | MIC (minimum inhibitory concentration) [24]: > 100; MIC (minimum inhibitory concentration) [25]: 3.1; MIC (minimum inhibitory concentration) [27]: 0.39; MIC (minimum inhibitory concentration) [26]: > 100
